Measured values from ChEMBL document CHEMBL3875174, “Further investigation of Paprotrain: Towards the conception of selective and multi-targeted CNS kinase inhibitors” (Eur J Med Chem, 2016).

Key:
[1] = target: Dual specificity tyrosine-phosphorylation-regulated kinase 1B (Homo sapiens, UniProt Q9Y463); experiment: Inhibition of GST-tagged human recombinant DYRK1B expressed in Escherichia coli using RS peptide as substrate incubated for 30 mins in presence of [gamma-33 P] ATP by liquid scintillation counting analysis
[2] = target: Dual specificity protein kinase CLK4 (Homo sapiens, UniProt Q9HAZ1); experiment: Inhibition of GST-tagged human recombinant CLK4 expressed in Escherichia coli using RS peptide as substrate incubated for 30 mins in presence of [gamma-33 P] ATP by liquid scintillation counting analysis
[3] = Inhibition of porcine brain CK1 delta/epsilon using RRKHAAIGpSAYSITA as substrate incubated for 30 mins in presence of [gamma-33 P] ATP by liquid scintillation counting analysis; design: species or system Sus scrofa
[4] = target: Cyclin-dependent kinase 5/CDK5 activator 1 (Homo sapiens, UniProt Q00535); assay type: protein-complex assay
[5] = target: Dual specificity protein kinase CLK2 (Homo sapiens, UniProt P49760); experiment: Inhibition of GST-tagged human recombinant CLK2 expressed in Escherichia coli using RS peptide as substrate incubated for 30 mins in presence of [gamma-33 P] ATP by liquid scintillation counting analysis
[6] = Cytotoxicity against human KB cells assessed as growth inhibition at 1 uM after 72 hrs by MTS assay; assay type: toxicity, cell-based; conditions: for inhibition at 72 h, 1 µM: KB cells, read-out: GI
[7] = target: Dual specificity protein kinase CLK3 (Homo sapiens, UniProt P49761); experiment: Inhibition of GST-tagged human recombinant CLK3 expressed in Escherichia coli using RS peptide as substrate incubated for 30 mins in presence of [gamma-33 P] ATP by liquid scintillation counting analysis
[8] = target: Dual specificity tyrosine-phosphorylation-regulated kinase 1A (Homo sapiens, UniProt Q13627); experiment: Inhibition of GST-tagged human recombinant DYRK1A expressed in Escherichia coli using RS peptide as substrate incubated for 30 mins in presence of [gamma-33 P] ATP by liquid scintillation counting analysis
[9] = target: Glycogen synthase kinase-3 (Sus scrofa, UniProt B2LUN4+I6LNT8); experiment: Inhibition of porcine brain GSK3alpha/beta using GS-1 as substrate incubated for 30 mins in presence of [gamma-33 P] ATP by liquid scintillation counting analysis
[10] = target: Dual specificity protein kinase CLK1 (Homo sapiens, UniProt P49759); experiment: Inhibition of GST-tagged human recombinant CLK1 expressed in Escherichia coli using RS peptide as substrate incubated for 30 mins in presence of [gamma-33 P] ATP by liquid scintillation counting analysis
Sequence of Dual specificity protein kinase CLK1 (P49759 whole entry): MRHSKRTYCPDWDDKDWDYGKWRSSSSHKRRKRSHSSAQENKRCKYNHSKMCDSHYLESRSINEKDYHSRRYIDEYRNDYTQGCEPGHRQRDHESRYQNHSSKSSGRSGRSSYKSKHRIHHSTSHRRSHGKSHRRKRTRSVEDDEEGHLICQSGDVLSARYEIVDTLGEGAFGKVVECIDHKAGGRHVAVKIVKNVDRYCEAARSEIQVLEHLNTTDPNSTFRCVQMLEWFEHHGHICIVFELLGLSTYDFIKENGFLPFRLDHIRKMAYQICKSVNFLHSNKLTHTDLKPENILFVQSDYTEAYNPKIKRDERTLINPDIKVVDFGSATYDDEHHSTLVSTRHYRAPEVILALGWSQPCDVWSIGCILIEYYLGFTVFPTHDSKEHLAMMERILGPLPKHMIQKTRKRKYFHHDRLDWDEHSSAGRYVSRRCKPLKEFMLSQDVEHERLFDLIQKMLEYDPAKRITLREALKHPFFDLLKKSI

Sequence of Dual specificity protein kinase CLK4 (Q9HAZ1 whole entry): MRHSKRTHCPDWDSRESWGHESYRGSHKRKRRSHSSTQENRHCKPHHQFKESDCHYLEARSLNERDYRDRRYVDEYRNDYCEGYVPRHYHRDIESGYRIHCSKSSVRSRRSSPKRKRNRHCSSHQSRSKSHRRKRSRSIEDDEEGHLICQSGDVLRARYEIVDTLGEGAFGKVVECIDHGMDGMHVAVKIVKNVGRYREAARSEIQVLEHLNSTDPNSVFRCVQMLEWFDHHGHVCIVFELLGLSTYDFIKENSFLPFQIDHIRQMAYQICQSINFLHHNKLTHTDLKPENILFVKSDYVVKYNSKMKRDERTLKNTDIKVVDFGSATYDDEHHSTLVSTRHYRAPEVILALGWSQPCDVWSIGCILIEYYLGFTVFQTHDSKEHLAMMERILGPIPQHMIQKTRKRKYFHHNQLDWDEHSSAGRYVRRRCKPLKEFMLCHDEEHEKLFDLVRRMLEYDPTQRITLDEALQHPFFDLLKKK
Sequence of Dual specificity protein kinase CLK3 (P49761 whole entry): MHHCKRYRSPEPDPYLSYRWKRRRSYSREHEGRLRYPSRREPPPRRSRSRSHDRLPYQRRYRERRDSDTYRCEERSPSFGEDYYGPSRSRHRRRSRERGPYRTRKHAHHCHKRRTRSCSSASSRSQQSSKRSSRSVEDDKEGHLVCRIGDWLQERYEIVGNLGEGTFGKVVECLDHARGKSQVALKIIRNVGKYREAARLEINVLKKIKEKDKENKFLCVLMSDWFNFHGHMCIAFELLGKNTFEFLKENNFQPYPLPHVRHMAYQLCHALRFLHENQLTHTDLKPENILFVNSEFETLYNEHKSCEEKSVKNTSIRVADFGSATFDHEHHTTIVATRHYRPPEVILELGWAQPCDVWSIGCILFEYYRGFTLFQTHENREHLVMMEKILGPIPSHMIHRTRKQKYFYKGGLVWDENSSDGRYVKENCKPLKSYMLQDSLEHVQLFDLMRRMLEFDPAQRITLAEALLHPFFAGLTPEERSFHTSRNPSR
Sequence of Dual specificity protein kinase CLK2 (P49760 whole entry): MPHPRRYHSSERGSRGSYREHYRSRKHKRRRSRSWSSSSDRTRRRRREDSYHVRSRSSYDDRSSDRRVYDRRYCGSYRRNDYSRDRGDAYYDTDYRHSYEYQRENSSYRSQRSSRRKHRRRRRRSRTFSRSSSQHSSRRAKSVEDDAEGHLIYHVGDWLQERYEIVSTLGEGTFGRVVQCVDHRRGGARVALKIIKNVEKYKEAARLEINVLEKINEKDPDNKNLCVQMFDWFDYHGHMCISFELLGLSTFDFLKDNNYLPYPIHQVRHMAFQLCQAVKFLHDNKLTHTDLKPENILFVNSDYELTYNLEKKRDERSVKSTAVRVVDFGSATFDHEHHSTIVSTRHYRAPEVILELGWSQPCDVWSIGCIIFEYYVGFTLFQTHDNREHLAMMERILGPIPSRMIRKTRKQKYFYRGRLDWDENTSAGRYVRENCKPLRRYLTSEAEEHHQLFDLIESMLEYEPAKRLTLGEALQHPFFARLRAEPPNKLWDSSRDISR
Sequence of Dual specificity tyrosine-phosphorylation-regulated kinase 1B (Q9Y463 whole entry): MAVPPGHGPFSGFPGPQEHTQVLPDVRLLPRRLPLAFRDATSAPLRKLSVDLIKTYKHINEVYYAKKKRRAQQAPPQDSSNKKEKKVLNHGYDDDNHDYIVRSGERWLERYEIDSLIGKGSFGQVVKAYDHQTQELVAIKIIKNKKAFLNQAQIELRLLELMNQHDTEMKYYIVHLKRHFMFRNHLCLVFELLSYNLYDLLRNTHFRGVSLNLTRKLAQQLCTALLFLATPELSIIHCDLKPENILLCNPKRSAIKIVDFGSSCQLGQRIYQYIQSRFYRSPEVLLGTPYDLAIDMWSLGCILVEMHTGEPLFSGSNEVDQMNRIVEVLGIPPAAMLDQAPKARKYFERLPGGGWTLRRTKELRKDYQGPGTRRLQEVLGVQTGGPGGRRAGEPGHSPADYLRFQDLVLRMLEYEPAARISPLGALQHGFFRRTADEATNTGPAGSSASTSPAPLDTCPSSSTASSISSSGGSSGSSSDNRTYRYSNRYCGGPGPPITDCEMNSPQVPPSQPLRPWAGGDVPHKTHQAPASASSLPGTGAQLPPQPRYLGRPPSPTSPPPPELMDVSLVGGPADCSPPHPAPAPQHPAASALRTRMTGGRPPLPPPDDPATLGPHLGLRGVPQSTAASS
Sequence of Cyclin-dependent kinase 5/CDK5 activator 1 (Q00535 whole entry): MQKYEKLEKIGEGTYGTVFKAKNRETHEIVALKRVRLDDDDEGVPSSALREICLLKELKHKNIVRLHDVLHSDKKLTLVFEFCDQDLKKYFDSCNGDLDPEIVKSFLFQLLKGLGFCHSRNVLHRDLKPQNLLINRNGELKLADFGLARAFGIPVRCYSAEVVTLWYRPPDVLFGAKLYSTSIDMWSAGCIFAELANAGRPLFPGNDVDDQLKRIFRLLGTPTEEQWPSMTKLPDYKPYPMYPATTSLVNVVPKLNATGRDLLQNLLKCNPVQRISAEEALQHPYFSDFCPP
Sequence of Cyclin-dependent kinase 5/CDK5 activator 1 (Q15078 whole entry, further chain): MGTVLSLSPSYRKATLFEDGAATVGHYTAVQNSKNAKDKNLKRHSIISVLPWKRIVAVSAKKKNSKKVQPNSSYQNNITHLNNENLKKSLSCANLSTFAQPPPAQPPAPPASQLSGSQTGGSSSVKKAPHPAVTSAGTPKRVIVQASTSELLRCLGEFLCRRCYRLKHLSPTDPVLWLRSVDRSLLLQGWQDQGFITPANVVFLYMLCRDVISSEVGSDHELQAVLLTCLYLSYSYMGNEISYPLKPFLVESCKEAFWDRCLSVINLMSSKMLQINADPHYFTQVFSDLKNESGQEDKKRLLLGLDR

Row | Compound | IC50 [1] | IC50 [2] | IC50 [3] | IC50 [4] | IC50 [5] | inhibition at 72 h, 1 µM [6] | IC50 [7] | IC50 [8] | IC50 [9] | IC50 [10] | growth inhibition (GI) ([6]; kb, 72 h, 1 µM)
1 | COc1ccc2c(c1)[nH]c1c3ccncc3cc(CN)c21 | 910 nM | 270 nM | > 10000 nM | 5600 nM | 1600 nM | 85% | 7000 nM | 870 nM | > 10000 nM | 830 nM | –
2 | COc1ccc2[nH]c3c4ccncc4cc(C#N)c3c2c1 | 220 nM | 57 nM | > 10000 nM | 800 nM | 110 nM | – | 710 nM | 370 nM | 1700 nM | 51 nM | Non-Toxic
3 | COc1ccc2c(c1)[nH]c1c3c(OC)cncc3cc(C#N)c21 | 42 nM | 30 nM | > 10000 nM | 6400 nM | 150 nM | 38% | 320 nM | 18 nM | 140 nM | 23 nM | –
4 | COc1cccc2[nH]c3c4ccncc4cc(C#N)c3c12 | > 10000 nM | 100 nM | > 10000 nM | > 10000 nM | 4000 nM | 13% | > 10000 nM | 850 nM | > 10000 nM | 620 nM | –
5 | COc1ccc2c(c1)[nH]c1c3ccncc3cc(CNC(C)=O)c21 | 900 nM | 690 nM | > 10000 nM | 6000 nM | 2800 nM | 16% | 8000 nM | 970 nM | > 10000 nM | 2400 nM | –
